Measurements from paper PMC4303209, “A novel phosphatidylinositol 3-kinase (PI3K) inhibitor directs a potent FOXO-dependent, p53-independent cell cycle arrest phenotype characterized by the differential induction of a subset of FOXO-regulated genes” (Breast Cancer Research : BCR, 2014).

Tested on: MCF-7 breast cancer cells
Assay: Microarray gene expression analysis (Agilent whole human genome 4 x 44K; compound vs DMSO, LIMMA log2 fold change)
Format: cell-based

Oc1cccc(-c2nc(N3CCOCC3)c3oc4ncccc4c3n2)c1 [PI-103]
ARHGEF18 log2FC (gene ARHGEF18 (23370), apoptosis genes): -0.106
ATOH1 log2FC (gene ATOH1 (474), apoptosis genes): -0.042
ATPIF1 log2FC (gene ATPIF1 (93974), apoptosis genes): 0.131
log2FC (gene ATR (Gene 545), cell cycle genes): 0.11
log2FC (gene BAD (Gene 572), cell cycle genes): 0.53
BCL2L10 log2FC (gene BCL2L10 (10017), apoptosis genes): -0.066
BDKRB2 log2FC (gene BDKRB2 (624), apoptosis genes): -0.025
BIRC2 log2FC (gene BIRC2 (329), apoptosis genes): -0.339
BIRC8 log2FC (gene BIRC8 (112401), apoptosis genes): -0.038
BMP2 log2FC (gene BMP2 (650), apoptosis genes): -0.233
log2FC (gene BMP4 (Gene 652), cell cycle genes): 0.22
BMP5 log2FC (gene BMP5 (653), apoptosis genes): -0.019
BOK log2FC (gene BOK (666), apoptosis genes): 0.093
log2FC (gene BRE (Gene 9577), cell cycle genes): -0.21
BTK log2FC (gene BTK (695), apoptosis genes): 0.086
log2FC (gene BUB1B (Gene 701), cell cycle genes): 0.15
C1QBP log2FC (gene C1QBP (708), apoptosis genes): -0.112
C3orf38 log2FC (gene C3orf38 (285237), apoptosis genes): -0.159
log2FC (gene CAMK2B (Gene 816), cell cycle genes): 0.01
CAPN3 log2FC (gene CAPN3 (825), apoptosis genes): -0.026
log2FC CAPN3 (gene CAPN3 (Gene 825), cell cycle genes): -0.0259
CARD9 log2FC (gene CARD9 (64170), apoptosis genes): 0.028
CARD14 log2FC (gene CARD14 (79092), apoptosis genes): 0.056
log2FC (gene CASP3 (Gene 836), cell cycle genes): 0.31
CASP10 log2FC (gene CASP10 (843), apoptosis genes): 0.088
CASP12 log2FC (gene CASP12 (120329), apoptosis genes): 0.062
CCK log2FC (gene CCK (885), apoptosis genes): -0.021
CCL19 log2FC (gene CCL19 (6363), apoptosis genes): 0.205
log2FC (gene CCNB2 (Gene 9133), cell cycle genes): 0.20
log2FC (gene CCNH (Gene 902), cell cycle genes): 0.14
log2FC (gene CCNT2 (Gene 905), cell cycle genes): 0.14
CD38 log2FC (gene CD38 (952), apoptosis genes): 0.042
CD40LG log2FC (gene CD40LG (959), apoptosis genes): -0.017
CD248 log2FC (gene CD248 (57124), apoptosis genes): 0.046
log2FC (gene CDC73 (Gene 79577), cell cycle genes): 0.33
CDH1 log2FC (gene CDH1 (999), apoptosis genes): 0.556
log2FC CDH13 (gene CDH13 (Gene 1012), cell cycle genes): 0.0463
log2FC CDK2AP1 (gene CDK2AP1 (Gene 8099), cell cycle genes): -0.15
CDK5 log2FC (gene CDK5 (1020), apoptosis genes): 0.184
log2FC CDK5RAP1 (gene CDK5RAP1 (Gene 51654), cell cycle genes): 0.0451
log2FC CDKN2B (gene CDKN2B (Gene 1030), cell cycle genes): -0.0758
log2FC (gene CENPJ (Gene 55835), cell cycle genes): 0.11
log2FC (gene CENPK (Gene 64105), cell cycle genes): 0.33
log2FC (gene CETN3 (Gene 1070), cell cycle genes): 0.33
log2FC (gene CHEK2 (Gene 11200), cell cycle genes): 0.11
CHIA log2FC (gene CHIA (27159), apoptosis genes): -0.110
CIDEA log2FC (gene CIDEA (1149), apoptosis genes): -0.071
CLC log2FC (gene CLC (1178), apoptosis genes): -0.00153
CLEC5A log2FC (gene CLEC5A (23601), apoptosis genes): -0.040
CLSPN log2FC (gene CLSPN (63967), apoptosis genes): -0.114
CNTFR log2FC (gene CNTFR (1271), apoptosis genes): -0.050
COL2A1 log2FC (gene COL2A1 (1280), apoptosis genes): -0.00236
COL4A3 log2FC (gene COL4A3 (1285), apoptosis genes): 0.543
COMP log2FC (gene COMP (1311), apoptosis genes): -0.113
log2FC (gene COPS5 (Gene 10987), cell cycle genes): 0.16
log2FC (gene CRLF3 (Gene 51379), cell cycle genes): 0.14
log2FC (gene CSNK2B (Gene 1460), cell cycle genes): -0.06
CST3 log2FC (gene CST3 (1471), apoptosis genes): 0.253
CTLA4 log2FC (gene CTLA4 (1493), apoptosis genes): 0.009
CXCR4 log2FC (gene CXCR4 (7852), apoptosis genes): 0.375
CYR61 log2FC (gene CYR61 (3491), apoptosis genes): -0.258
DAPK2 log2FC (gene DAPK2 (23604), apoptosis genes): -1.207
DAXX log2FC (gene DAXX (1616), apoptosis genes): -0.040
log2FC DAXX (gene DAXX (Gene 1616), cell cycle genes): -0.04
log2FC (gene DCLRE1B (Gene 64858), cell cycle genes): -0.35
log2FC (gene DDX11 (Gene 1663), cell cycle genes): -0.27
DDX47 log2FC (gene DDX47 (51202), apoptosis genes): -0.196
DEDD2 log2FC (gene DEDD2 (162989), apoptosis genes): 0.214
DFFB log2FC (gene DFFB (1677), apoptosis genes): -0.041
log2FC (gene DIAPH2 (Gene 1730), cell cycle genes): 0.38
log2FC DIRAS3 (gene DIRAS3 (Gene 9077), cell cycle genes): 0.0278
DMPK log2FC (gene DMPK (1760), apoptosis genes): 0.273
DNM2 log2FC (gene DNM2 (1785), apoptosis genes): 0.271
DPF1 log2FC (gene DPF1 (8193), apoptosis genes): -0.250
log2FC ECD (gene ECD (Gene 11319), cell cycle genes): -0.23
EGR3 log2FC (gene EGR3 (1960), apoptosis genes): 0.187
EGR4 log2FC (gene EGR4 (1961), apoptosis genes): 0.222
ELMO1 log2FC (gene ELMO1 (9844), apoptosis genes): 0.209
EPB41L3 log2FC (gene EPB41L3 (23136), apoptosis genes): 0.039
